Where two headings read alike, the source gives them in different places. Values belong to the compound of their own block, whether it stands above or below them.
Tests used:
[1] = tested on: cardiovascular parameters in rats; format: in vivo, rat
[2] = target: T1, A1 receptors from rat brain membranes (Rattus norvegicus, UniProt P25099)
T1 construct: Rat cerebral cortical and striatal membranes were prepared; from tissue; host or cells: rat brain (cerebral cortical) membranes
T1 sequence (P25099 1-326): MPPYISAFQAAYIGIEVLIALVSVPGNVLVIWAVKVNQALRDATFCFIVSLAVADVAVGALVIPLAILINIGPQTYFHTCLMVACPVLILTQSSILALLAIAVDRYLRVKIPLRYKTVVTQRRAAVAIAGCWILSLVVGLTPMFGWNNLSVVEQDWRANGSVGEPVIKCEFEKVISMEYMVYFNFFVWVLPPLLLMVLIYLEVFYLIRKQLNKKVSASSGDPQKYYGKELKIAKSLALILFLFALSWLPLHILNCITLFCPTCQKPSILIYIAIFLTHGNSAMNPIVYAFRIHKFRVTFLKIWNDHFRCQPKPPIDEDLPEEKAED

[3] = target: T2, A2 receptors from rat striatal membranes (Rattus norvegicus, UniProt P30543); experiment: Radioligand binding at A2 (A2a) receptors, displacement of [3H]CGS 21680 (or [3H]NECA with 50 nM CPA) from rat striatal membranes
T2 construct: Rat cerebral cortical and striatal membranes were prepared; from tissue; host or cells: rat striatal membranes
T2 sequence (P30543 whole entry): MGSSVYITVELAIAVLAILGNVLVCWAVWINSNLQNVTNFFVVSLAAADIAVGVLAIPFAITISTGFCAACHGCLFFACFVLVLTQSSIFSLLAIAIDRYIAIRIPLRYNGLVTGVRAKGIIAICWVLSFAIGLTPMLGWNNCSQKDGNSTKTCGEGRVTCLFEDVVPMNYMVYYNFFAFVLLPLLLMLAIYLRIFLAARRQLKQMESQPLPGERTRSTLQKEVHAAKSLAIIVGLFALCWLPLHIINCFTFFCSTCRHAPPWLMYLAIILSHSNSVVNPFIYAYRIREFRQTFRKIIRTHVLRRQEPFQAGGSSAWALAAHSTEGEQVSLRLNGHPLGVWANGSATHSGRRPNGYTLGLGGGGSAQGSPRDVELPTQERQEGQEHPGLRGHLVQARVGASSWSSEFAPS

[4] = target: T2, A2 receptors from rat striatal membranes; settings: read-out: A2 affinity Ki, cited from earlier work
[5] = target: T1, A1 receptors from rat brain membranes; experiment: biochemical; format: binding; settings: for Ki: rat brain membranes
[6] = tested on: NMDA-evoked seizures in mice; format: in vivo
[7] = tested on: pentamethylenetetrazole-induced convulsions in mice; format: in vivo; settings: PMT 75 mg/kg alone
[8] = 4 mg/kg alone, 10-30 min post-injection
[9] = values without SEM, taken from the literature; read-out: A1 affinity Ki; cited from earlier work
[10] = rat striatal membranes, displacement of [3H]CGS 21680 (or [3H]NECA + 50 nM CPA), read-out: A2 affinity Ki
[11] = values without SEM, taken from the literature
[12] = Table 2, [3H]PIA, read-out: Ki (A1)
[13] = Table 2, [3H]CGS 21680, rat striatal membranes, read-out: Ki (A2)

SMILES: CCCn1c(=O)c2[nH]c(-c3ccc(C=CC(=O)O)cc3)nc2n(CCC)c1=O [BW1433, 1,3-dipropyl-8-(4-carboxyvinylphenyl)xanthine, reference compound]
blood flow and respiratory rates (in words) ([1]; 4 mg/kg alone): Blood flow and respiratory rates were increased
rise in blood pressure [1, 8]: > 40 % of initial values
rise in heart rate [1, 8]: > 40 % of initial values
body temperature (in words) ([1]; rat, in vivo, 4 mg/kg): no major changes

Ki [3, 10]: 28.9 µM
SMILES: CN(C)c1ncnc2c1ncn2[C@@H]1O[C@H](CO)[C@@H](O)[C@H]1O [Compound 9, N^6 -dimethyladenosine, reference compound]
Ki [2, 9]: 10 µM

SMILES: COc1cc(OC)cc(C(CNc2ncnc3c2ncn3[C@@H]2O[C@H](CO)[C@@H](O)[C@H]2O)c2ccccc2C)c1 (stereo partly drawn) [Compound 10, N^6-[2-(3,5-dimethoxyphenyl)-2-(2-methylphenyl)ethyl]adenosine]
Ki [4]: 0.0044 µM

SMILES: O=S(=O)(O)CCNc1ncnc2c1ncn2[C@@H]1O[C@H](CO)[C@@H](O)[C@H]1O [Compound 11, N^6-(2-sulfo)ethyladenosine]
A1 percent displacement ([2]; at 100 μM, value without SEM, from the literature; cited from earlier work): 41%

SMILES: OC[C@H]1O[C@@H](n2cnc3c(NC4CCCC4)cc(Cl)nc32)[C@H](O)[C@@H]1O [Compound 15, 1-deaza-2-chloro-N^6-cyclopentyladenosine]
Ki [4, 11]: 13.2 µM

Ki ([5]; displacement of [3H]PIA (or [3H]CHA), read-out: A1 affinity Ki): 0.0873 ± 0.0139 µM
Ki [3, 10]: 0.0953 ± 0.0246 µM
SMILES: CCNC(=O)[C@H]1O[C@@H](n2cnc3c(NCc4ccccc4)ncnc32)[C@H](O)[C@@H]1O [Compound 28, N^6-benzyladenosine-5'-N-ethyluronamide]
Ki [4, 11]: 0.095 µM

Ki [3, 10]: 13.5 µM
SMILES: CCNC(=O)[C@H]1O[C@@H](n2cnc3c(N(C)C)ncnc32)[C@H](O)[C@@H]1O [Compound 29, N^6 -dimethylNECA, reference compound]
Ki [2, 9]: 9.6 µM

SMILES: Nc1ncnc2c1ccn2[C@@H]1O[C@H](CO)[C@@H](O)[C@H]1O [Compound 33, 7-deazaadenosine, reference compound]
Ki ([2]; read-out: A1 affinity Ki; values without SEM, taken from the literature; cited from earlier work): > 0.1 µM
A2 percent displacement ([3]; striatal membranes, 100 µM): 48.3 ± 0.4%

SMILES: Nc1[nH]c2ccccc2c2ncnc1-2 [Compound 94, imidazo[4,5-c]quinolin-4-amine]
Ki [4, 11]: 1.4 µM

SMILES: O=c1[nH]c(=O)c2[nH]cnc2[nH]1 [Compound 98, xanthine, reference compound]
Ki [2, 9]: 298 µM
inhibition at 100 µM ([3]; read-out: A2 percent displacement): 16.2 ± 2.6%

Ki [3, 10]: 19.4 µM
SMILES: Cn1c(=O)[nH]c2ncn(C)c2c1=O [Compound 104, 1,7-dimethylX, reference compound]
Ki [2, 9]: 30 µM

SMILES: CC(C)Cn1c(=O)n(C)c(=O)c2[nH]cnc21 [Compound 108, 3-isobutyl-1-methylxanthine]
Ki [4, 11]: 16 µM

factor less potent than N6-(3-iodobenzyl)-adenosine at A1 receptors [5]: 3.2 factor
Ki [5, 12]: 0.0638 ± 0.0151 µM
factor less potent than N6-(3-iodobenzyl)-adenosine at A2a receptors [3]: 6.7 factor
Ki [3, 13]: 0.117 ± 0.015 µM
SMILES: Nc1nc(NCc2cccc(I)c2)c2ncn([C@@H]3O[C@H](CO)[C@@H](O)[C@H]3O)c2n1 [Example 43, 2-amino-N^6-(3-iodobenzyl)-9-[β-D-ribofuranosyl]-adenine]

Ki [5, 12]: 4.89 ± 2.58 µM
Ki [3, 13]: 4.12 ± 0.21 µM
SMILES: CNC(=O)[C@H]1O[C@@H](n2cnc3c(NCc4cccc(I)c4)nc(NC)nc32)[C@H](O)[C@@H]1O [Example 45, N^6-(3-iodobenzyl)-2-methylamino-9-[5-(methylamido)-β-D-ribofuranosyl]-adenine]

inhibition at 100 µM ([5]; Table 4, at 10^-4 M, read-out: percent displacement of radioligand at A1): 21 ± 3%
inhibition at 100 µM ([3]; Table 4, at 10^-4 M, read-out: percent displacement of radioligand at A2): 4%
SMILES: COc1nc2c(c(=O)n(C)c(=O)n2C)n1[C@@H]1O[C@H](CO)[C@@H](O)[C@H]1O [Example 59, 8-methoxytheophylline-7-β-D-ribofuranoside]

SMILES: CN[C@H](CC(=O)O)C(=O)O [NMDA, N-methyl-D-aspartate, reference compound]
% Mortality at 24 h ([6]; NMDA 60 mg/kg alone): 60%
Ave. Latency to Seizures ([6]; NMDA 60 mg/kg alone): 244 + 90 sec
% Convulsing ([6]; NMDA 60 mg/kg alone (control), within 15 min): 80%
Impairment (neurological impairment scale 1-6) ([6]; NMDA 60 mg/kg alone, 1 no change ... 6 clonic/tonic complexes): 3.5 ± 0.5

SMILES: C1CCc2nnnn2CC1 [PMT, pentamethylenetetrazole, reference compound]
Mortality 0.4-5 h [7]: 0%
Mortality <15 min [7]: 100%
Mortality >5 h [7]: 0%
Mortality Overall [7]: 100%
Onset of convulsive behavior [7]: 74 s

— US5773423A (priority 1994, dated 1998)
